Reference: patent US20250152626A1, “CONSTRUCTION AND APPLICATION OF ENHANCED NEUTROPHIL DRUG” (China Pharmaceutical University, priority 2023, published 2025)

B1: IFNγ (protein, UniProt P01579 24-161, looked up)
Interferon gamma: QDPYVKEAENLKKYFNAGHSDVADNGTLFLGILKNWKEESDRKIMQSQIVSFYFKLFKNFKDDQSIQKSVETIKEDMNVKFFNSNKKKRDDFEKLTNYSVTDLNVQRKAIHELIQVMAELSPAAKTGKRKRSQMLFRG
notes: cytokine, single inducer

Test system: Human neutrophils
Assay: Effect of single inducers on neutrophil viability (Example 1)
Format: cell-based
Conditions: FIG. 2; for effect on neutrophil lifespan / viability: single inducer 8 h in 1640 medium, inducer removed, culture 24 h, apoptosis by flow cytometry; for concentration with the best effect on neutrophil lifespan: cytokine inducers tested at 0-100 ng/mL
Method: Human neutrophils were incubated with different concentrations of single inducers in 1640 medium for 8 h. Different concentrations of single inducers included: • inducer 1 (IFNγ): 0, 10, 20, 30, 50, 100 ng/mL; • inducer 2 (GM-CSF): 0, 10, 20, 30, 50, 100 ng/mL; • inducer 3 (TNFα): 0, 10, 20, 30, 50, 100 ng/mL; • inducer 4 (duvalumab): 0.1, 0.5, 1, 2, 3, 5, 8, 10 μg/mL; • inducer 5 (avelumab): 0.1, 0.5, 1, 2, 3, 5, 8, 10 μg/mL; • inducer 6 (Q-VD-Oph): 1, 10, 20, 50, 60, 80, 100 μM; and • inducer 7 (Nec-1): 1, 10, 20, 50, 60, 80, 100 μM; and • conditions of culture were 37° C. and 5% CO2. The apoptosis of neutrophils was detected by flow cytometry after removing the inducer and continuing culture for 24 h.

[1] = apoptosis inhibitors tested at 1-100 μM
[2] = PD-L1 inhibitors tested at 0.1-10 μg/mL

| Molecule | concentration with the best effect on neutrophil viability [1] | effect on neutrophil lifespan / viability | concentration with the best effect on neutrophil lifespan | concentration with the best effect on neutrophil viability [2] |
| --- | --- | --- | --- | --- |
| CC(C)[C@H](NC(=O)c1ccc2ccccc2n1)C(=O)N[C@@H](CC(=O)O)C(=O)COc1c(F)cccc1F [inducer 6, Q-VD-Oph] | 50 µM | increase neutrophil viability |  |  |
| CN1C(=O)C(Cc2c[nH]c3ccccc23)NC1=S (stereo not drawn) [inducer 7, Nec-1] | 50 µM | increase neutrophil viability |  |  |
| GM-CSF [inducer 2] |  | significantly prolong the lifespan of neutrophils | 20 ng/mL |  |
| avelumab [inducer 5] |  | increase neutrophil viability |  | 2 µg/mL |
| duvalumab [inducer 4] |  | increase neutrophil viability |  | 2 µg/mL |
| B1 |  | significantly prolong the lifespan of neutrophils | 20 ng/mL |  |
